# Assay results published in US12527849B2, “Apparatus for determining administration form of a composition of an engineered virus-based nanoparticle for a treatment of an autoimmune condition” (Diamante Srl, priority 2021, dated 2026).
# Tests used:
# Assay type in all cases: in vivo
# IL-6 = assay: Pro-inflammatory cytokines in sera of CIA Collagen mice (ELISA, day 58): IL-6; conditions: Dexamethasone oral 1 mg/kg, 20 times between day 28 and 57
# Protocol: (§1) Critical administration 124 disclosed herein is further described below. Q5D represents administration 5 days a part. TBSV·pLIp1 and wt TBSV shown in Table 1 may include liquid form that are not sterile and stored in −20° C. TBSV·pLIp1 may be given at the dose of 50 μG/100 μL Male DBA/1J mice (8 weeks; Envigo, Italy) may be used for these studies. Mice may be housed in individual cages (two for each group) and maintained under a 12:12 light-dark cycle at 21° C.±1° C. and 50%±5% humidity. The animals may be acclimated to their environment for 1 week and had ad libitum access to tap water and standard rodent diet. All animal experiments may be complied with regulations in Italy (D.M. 116192), Europe (O.J of E.C. L 358/112/18/1986), and the United States (Animal Welfare Assurance Number A5594-01, Department of Health and Human Services, USA). […] Arthritis was assessed by using qualitative severity score system and hind paw volume (mL) measured by a plethysmometer on day 20, 22, 24, 26, 28, 30, 32, 34, 36, 38, 40, 42, 44, 46 48, 50, 52, 54, 56 and 58. Body weight was recorded on day 0, 6, 13, 16, 18, 20, 22, 24, 26, 28, 30, 32, 34, 36, 38, 40, 42, 44, 46, 50, 52, 54, 56 and 58. […]
# IL-12p70 = assay: Pro-inflammatory cytokines in sera of CIA Collagen mice (ELISA, day 58): IL-12p70; conditions: Dexamethasone oral 1 mg/kg, 20 times between day 28 and 57
# Protocol: as §1
# IL-10 = assay: Cytokine ELISA in CIA mice, day 60: IL-10; conditions: serum pooled from five CIA mice
# From the text: With continued reference to FIG. 1, in some embodiments, administration 116 may be done to an animal. As a non-limiting example, the animal may include a mouse, a fish, a rabbit, human, and the like. As a non-limiting example, administration 116 of composition of the engineered virus-based nanoparticle for a treatment of an autoimmune condition may be done to dilute, brown, and non-agouti (DBA) mice based on their susceptibility to collagen-induced arthritis (CIA). Female DBA/1 mice 6 to 8 weeks of age may be maintained under specific pathogen-free conditions. CIA may be induced by the intradermal tail base injection of 100 μg of chicken type II collagen (Sigma-Aldrich) as previously described. Five mice per group may be immunized on days 0 and 21 to induce arthritis. The onset of disease may be confirmed on the day that swelling or erythema may be observed in any paw, typically 4 to 10 days after the second immunization. Each experimental group may be treated seven times, 5 days apart, starting from day 28 after the first immunization, with intraperitoneal injections of saline (200 μI per mouse), TBSV·pLIp1, TBSV·pFADK2, pLIp1+IFA, and pFADK2+IFA (all 50 μg per mouse in 200 μl) or dexamethasone (5 μg per mouse in 200 μl). […] CIA may be assessed using a macroscopic score system based on the visual identification of arthritic limbs.
compound,measurement,setting,value
"C[C@@H]1C[C@H]2[C@@H]3CCC4=CC(=O)C=C[C@]4(C)[C@@]3(F)[C@@H](O)C[C@]2(C)[C@@]1(O)C(=O)CO [Dexamethasone, dexamethasone]","IL-6, % of reduction vs CIA Collagen",IL-6,40.13%
same,"IL-12p70, % of reduction vs CIA Collagen",IL-12p70,37.95%
same,IL-10,IL-10,71.6 pg/mL
